One block for each compound: values may come before it.
Assays:
[1] = test system: LN18 glioblastoma cell line; test: In-vitro cell survival assay (Alamar blue), LN18; format: cell-based; settings: Homo sapiens, LN-18, 24 h; LN18, one day after compound addition
Method: (§1) Five tumor-derived cell lines were treated with the ROS inhibitor compounds and cell survival was monitored to determine the cancer prohibition effects of the compounds. The cell lines included HeLa, a cervical cancer cell line, and four glioblastoma cell lines U138, U87, LN18, and U118. The basic protocol for the in-vitro cell survival assay is the same for all five cell lines. In particular, the cells were seeded in 96-well plates at 2-5×10^3 cells/well (cell line dependent) in culture medium. The cells were grown for 2 days before the compounds were dissolved in DMSO and added to final concentrations of 100 uM, 10 uM, or 1 uM (DMSO final concentration 0.5%). The cell culture was then assayed one day after the addition of the compounds. The assay used Alamar blue as a redox-sensitive dye that interrogates mitochondrial fitness of cells, and these assays provided a readout for cell proliferation and viability. The raw values were normalized to an average of several vehicle control wells and are presented as percent decrease in proliferation/viability, which is converted to half maximal effective concentration (EC50) values.

[2] = test system: U138 glioblastoma cell line; test: In-vitro cell survival assay (Alamar blue), U138; format: cell-based; settings: 24 h; U138, one day after compound addition
Method: as §1

[3] = test system: U87 glioblastoma cell line; test: In-vitro cell survival assay (Alamar blue), U87; format: cell-based; settings: 24 h; U87, one day after compound addition
Method: as §1

[4] = test system: HeLa cervical cancer cell line; test: In-vitro cell survival assay (Alamar blue), HeLa; format: cell-based; settings: Homo sapiens, 24 h, one day after compound addition
Method: as §1

ROS = ROS (Homo sapiens, UniProt P08922); test: In vitro ROS enzymatic reaction assay (HTRF, Cisbio); format: biochemical; parameters: ROS or EGFR enzyme, 0.008 ng/ul; settings: for inhibition at 10 µM / inhibition at 5 µM / Kinase Inhib. 10 uM (%) / Kinase Inhib. 5 uM (%): ROS kinase; for inhibition at 10 µM / Kinase Inhib. 10 uM (%): compound at 10 uM; for inhibition at 10 µM: read-out: Kinase Inhib. 10 uM (%); for inhibition at 5 µM / Kinase Inhib. 5 uM (%): compound at 5 uM; for inhibition at 5 µM: read-out: Kinase Inhib. 5 uM (%)
Method: The ROS enzymatic reactions were carried out with a high throughput screening platform for phosphor-detection of kinase activity. This platform based on homogeneous time resolved fluorescence (HTRF) technology from Cisbio Bioassays, Inc. (Cisbio). […] The reaction was allowed to proceed for 30 minutes at room temperature. An equal volume of detection buffer was then added to the reaction mix.

ROS, sequence (P08922 28-2347): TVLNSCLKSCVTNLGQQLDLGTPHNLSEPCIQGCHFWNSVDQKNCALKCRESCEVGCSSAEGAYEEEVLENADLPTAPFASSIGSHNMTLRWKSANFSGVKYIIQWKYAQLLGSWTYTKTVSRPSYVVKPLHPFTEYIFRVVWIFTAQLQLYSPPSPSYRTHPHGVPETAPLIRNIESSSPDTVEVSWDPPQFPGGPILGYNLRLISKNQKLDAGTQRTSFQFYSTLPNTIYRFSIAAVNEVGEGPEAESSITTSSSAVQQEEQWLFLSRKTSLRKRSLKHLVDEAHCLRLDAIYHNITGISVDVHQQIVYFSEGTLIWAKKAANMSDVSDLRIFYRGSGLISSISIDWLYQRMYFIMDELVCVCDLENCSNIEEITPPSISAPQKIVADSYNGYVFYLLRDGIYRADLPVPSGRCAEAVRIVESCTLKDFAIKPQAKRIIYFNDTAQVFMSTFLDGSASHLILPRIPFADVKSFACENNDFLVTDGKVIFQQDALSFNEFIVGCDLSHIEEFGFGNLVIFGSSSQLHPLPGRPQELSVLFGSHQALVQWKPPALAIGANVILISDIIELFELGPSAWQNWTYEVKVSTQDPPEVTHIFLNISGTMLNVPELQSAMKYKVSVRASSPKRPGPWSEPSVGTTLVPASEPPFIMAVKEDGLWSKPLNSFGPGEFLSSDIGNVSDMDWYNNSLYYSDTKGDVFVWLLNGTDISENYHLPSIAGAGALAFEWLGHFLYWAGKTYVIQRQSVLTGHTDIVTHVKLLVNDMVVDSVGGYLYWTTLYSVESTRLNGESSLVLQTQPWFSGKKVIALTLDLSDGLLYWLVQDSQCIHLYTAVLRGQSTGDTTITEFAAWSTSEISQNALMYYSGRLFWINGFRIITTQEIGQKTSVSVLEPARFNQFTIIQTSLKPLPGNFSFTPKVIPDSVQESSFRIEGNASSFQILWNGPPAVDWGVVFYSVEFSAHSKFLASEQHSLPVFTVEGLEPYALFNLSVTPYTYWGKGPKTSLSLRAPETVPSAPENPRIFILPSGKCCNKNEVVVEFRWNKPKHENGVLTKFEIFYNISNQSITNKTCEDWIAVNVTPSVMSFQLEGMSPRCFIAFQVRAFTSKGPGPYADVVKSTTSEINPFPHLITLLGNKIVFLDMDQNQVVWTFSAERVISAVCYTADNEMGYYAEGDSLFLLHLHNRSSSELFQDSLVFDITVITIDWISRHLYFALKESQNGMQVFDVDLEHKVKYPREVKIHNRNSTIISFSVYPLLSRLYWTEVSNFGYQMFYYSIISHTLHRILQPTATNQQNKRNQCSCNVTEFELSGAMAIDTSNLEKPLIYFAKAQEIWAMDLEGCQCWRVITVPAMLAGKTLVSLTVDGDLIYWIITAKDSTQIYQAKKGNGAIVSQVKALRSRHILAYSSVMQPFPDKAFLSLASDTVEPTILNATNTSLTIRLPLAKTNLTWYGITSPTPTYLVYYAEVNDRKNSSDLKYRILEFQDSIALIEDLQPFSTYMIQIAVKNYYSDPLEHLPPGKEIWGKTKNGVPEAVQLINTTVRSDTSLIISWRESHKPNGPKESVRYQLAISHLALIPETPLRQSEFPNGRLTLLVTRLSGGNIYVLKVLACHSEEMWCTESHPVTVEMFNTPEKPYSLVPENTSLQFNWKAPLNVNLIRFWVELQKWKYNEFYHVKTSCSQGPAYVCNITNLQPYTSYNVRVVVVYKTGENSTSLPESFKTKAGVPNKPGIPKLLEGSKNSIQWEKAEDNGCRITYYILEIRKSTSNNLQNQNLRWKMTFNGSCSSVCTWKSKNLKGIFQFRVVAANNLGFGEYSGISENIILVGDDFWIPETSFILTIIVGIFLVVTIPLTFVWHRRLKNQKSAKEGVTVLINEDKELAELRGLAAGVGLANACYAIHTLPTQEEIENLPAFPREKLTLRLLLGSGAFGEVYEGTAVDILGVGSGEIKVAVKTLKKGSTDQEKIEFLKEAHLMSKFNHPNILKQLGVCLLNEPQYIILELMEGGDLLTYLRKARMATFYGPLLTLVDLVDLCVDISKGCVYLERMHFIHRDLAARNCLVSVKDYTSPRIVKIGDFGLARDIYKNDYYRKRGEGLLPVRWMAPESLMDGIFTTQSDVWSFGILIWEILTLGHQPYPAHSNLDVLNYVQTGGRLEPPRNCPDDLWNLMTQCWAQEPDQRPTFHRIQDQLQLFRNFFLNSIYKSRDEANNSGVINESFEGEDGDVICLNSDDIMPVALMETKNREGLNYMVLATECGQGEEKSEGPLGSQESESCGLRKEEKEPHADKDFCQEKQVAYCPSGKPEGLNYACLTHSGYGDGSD

Compound: Nc1cccc(C2CCN(c3nccc(Nc4ccc5ncsc5c4)n3)CC2)c1 [drawing 439]
- EC50 [1]: 15 µM
- EC50 [2]: 5 µM
- EC50 [3]: 14 µM
- EC50 [4]: 6 µM

Compound: CC(C)c1nc(Nc2ccc(C(=O)NCc3ccccc3)cc2)nc(Nc2ccc3ncsc3c2)n1 [drawing 459]
- EC50 [1]: 80 µM
- EC50 [2]: 80 µM
- EC50 [3]: 100 µM
- EC50 [4]: 35 µM

Compound: Brc1cccc(Nc2nccc(Nc3ccc4ncsc4c3)n2)c1 [drawing 442]
- EC50 [1]: > 100 µM
- EC50 [2]: > 100 µM
- EC50 [3]: > 100 µM
- EC50 [4]: > 100 µM

Compound: CC(C)c1nc(Nc2ccc(C(=O)N3CCOCC3)cc2)nc(Nc2ccc3ncsc3c2)n1 [drawing 460]
- EC50 [1]: 80 µM
- EC50 [2]: > 100 µM
- EC50 [3]: > 100 µM
- EC50 [4]: 35 µM

Compound: CC(C)(C)OC(=O)NC1CCN(C(=O)c2ccc(Nc3ncc(Cl)c(Nc4ccc5ncsc5c4)n3)cc2)CC1 [drawing 446]
- EC50 [1]: 18 µM
- EC50 [2]: 9 µM
- EC50 [3]: 80 µM
- EC50 [4]: 15 µM

Compound: CN1CCN(C(=O)c2ccc(Nc3ncc(Cl)c(Nc4ccc5ncsc5c4)n3)cc2)CC1 [drawing 444]
- EC50 [1]: 22 µM
- EC50 [2]: 28 µM
- EC50 [3]: 15 µM
- EC50 [4]: 12 µM

Compound: CC(C)c1nc(Nc2ccc(C(=O)N3CCCCC3)cc2)nc(Nc2ccc3ncsc3c2)n1 [drawing 455]
- EC50 [1]: 30 µM
- EC50 [2]: 18 µM
- EC50 [3]: 40 µM
- EC50 [4]: 30 µM

Compound: CC(C)c1nc(Nc2ccc(C(=O)N3CCN(C)CC3)cc2)nc(Nc2ccc3ncsc3c2)n1 [drawing 458]
- EC50 [1]: 40 µM
- EC50 [2]: 28 µM
- EC50 [3]: 35 µM
- EC50 [4]: 30 µM

Compound: O=C(NCC1CCNCC1)c1ccc(Nc2ncc(Cl)c(Nc3ccc4ncsc4c3)n2)cc1 [drawing 468]
- EC50 [1]: > 100 µM
- EC50 [2]: > 100 µM
- EC50 [3]: > 100 µM
- EC50 [4]: > 100 µM

Compound: CC(C)c1nc(Nc2ccc3ncsc3c2)nc(N2CCCC2)n1 [drawing 451]
- EC50 [1]: 40 µM
- EC50 [2]: 28 µM
- EC50 [3]: > 100 µM
- EC50 [4]: 30 µM

Compound: CC(C)c1nc(Nc2ccc(C(=O)NC3CCCCC3)cc2)nc(Nc2ccc3ncsc3c2)n1 [drawing 456]
- EC50 [1]: 30 µM
- EC50 [2]: 40 µM
- EC50 [3]: 45 µM
- EC50 [4]: 28 µM

Compound: CC(C)c1nc(Nc2ccc(C(=O)N3CCCC3)cc2)nc(Nc2ccc3ncsc3c2)n1 [drawing 457]
- EC50 [1]: 20 µM
- EC50 [2]: 22 µM
- EC50 [3]: 30 µM
- EC50 [4]: 4 µM

Compound: COc1ccc(C2=CCNCC2)cc1Nc1nccc(Nc2ccc3ncsc3c2)n1 [drawing 467]
- EC50 [1]: 15 µM
- EC50 [2]: 6.9 µM
- EC50 [3]: 18 µM
- EC50 [4]: 15 µM

Compound: NCC1CCN(C(=O)c2ccc(Nc3ncc(Cl)c(Nc4ccc5ncsc5c4)n3)cc2)CC1 [drawing 463]
- EC50 [1]: 100 µM
- EC50 [2]: 80 µM
- EC50 [3]: > 100 µM
- EC50 [4]: 70 µM

Compound: CC(C)c1nc(Nc2ccc(N)cc2)nc(Nc2cc(C3CC3)[nH]n2)n1 [drawing 461]
- EC50 [1]: 40 µM
- EC50 [2]: 8 µM
- EC50 [3]: 35 µM
- EC50 [4]: 14 µM

Compound: O=C1NN=C(c2ccccc2)/C1=C/Nc1ccccc1 [drawing 368]
- EC50 [1]: > 100 µM
- EC50 [4]: > 100 µM

Compound: Cc1ccc(NC=C2C(=O)NN=C2c2ccccc2)cc1 [drawing 370]
- EC50 [1]: 52 µM
- EC50 [4]: > 100 µM

Compound: CC(C)c1nc(Nc2ccc3ncsc3c2)nc(N2CCOCC2)n1 [drawing 452]
- EC50 [1]: 80 µM
- EC50 [2]: 80 µM
- EC50 [3]: > 100 µM
- EC50 [4]: 100 µM

Compound: COc1ccc(N/C=C2\C(=O)NN=C2c2ccccc2)cc1 [drawing 369]
- EC50 [1]: 78 µM
- EC50 [4]: 100 µM

- inhibition at 10 µM (ROS): 24.3%
Compound: O=C(NNc1nc2ccccc2nc1Cc1ccccc1)c1cccc(Cl)c1 [drawing 229]

- IC50 (ROS): 2.1 µM
- inhibition at 5 µM (ROS): 98.4%
Compound: Cc1cccc(Nc2nccc(Nc3cccc(C(=O)NCCN4CCOCC4)c3)n2)c1 [drawing 244]

- IC50 (ROS): > 100 µM
- Kinase Inhib. 10 uM (%) (ROS): 30.25%
Compound: O=C(NCC1Cc2cc(-c3cncnc3)cc(Cl)c2O1)c1cccc(Cn2cccn2)c1 (stereo not drawn)

- IC50 (ROS): 0.333 µM
- inhibition at 5 µM (ROS): 65.7%
Compound: CC(C)c1nc(Nc2ccc(C(=O)N3CCOCC3)cc2)nc(Nc2ccc3ncsc3c2)n1 [drawing 323]

- inhibition at 5 µM (ROS): 92.9%
Compound: Cc1cccc(Nc2nccc(Nc3cccc(C(=O)NCCCN4CCOCC4)c3)n2)c1 [drawing 279]

- Kinase Inhib. 5 uM (%) (ROS): 94.23%
Compound: O=C(NCCc1ccccc1)c1cccc(Nc2nccc(Nc3ccc4ncsc4c3)n2)c1 [drawing 281]

- IC50 (ROS): 0.48 µM
- inhibition at 5 µM (ROS): 85.1%
Compound: O=C(NCC(c1cccs1)S(=O)(=O)c1ccc(F)cc1)c1ccccc1 (stereo not drawn) [drawing 297]

- Kinase Inhib. 5 uM (%) (ROS): 27.92%
Compound: Nc1nc(Nc2ccc(C(=O)N3CCCC4CCCCC43)cc2)cc(Nc2ccc3ncsc3c2)n1 (stereo not drawn)

- IC50 (ROS): 0.435 µM
- inhibition at 5 µM (ROS): 101%
Compound: O=C(NCc1cccs1)c1cccc(Nc2nccc(Nc3ccc4ncsc4c3)n2)c1 [drawing 273]

- IC50 (ROS): 0.038 µM
Compound: CC(C)c1nc(Nc2cccc(Br)c2)nc(Nc2cc(C3CC3)n[nH]2)n1

- Kinase Inhib. 5 uM (%) (ROS): 26.23%
Compound: O=c1nc2[nH]c3ccc([N+](=O)[O-])cc3nc-2c(=O)[nH]1

- inhibition at 10 µM (ROS): 20.3%
Compound: O=C1NCCN1CCN1C(=O)c2ccccc2N[C@H]1c1ccccc1 [drawing 254]

- IC50 (ROS): 9.26 µM
Compound: CCOc1nc(Nc2cccc(Cc3nc4ccccc4s3)c2)nc(C(C)C)n1

- Kinase Inhib. 5 uM (%) (ROS): 21.55%
Compound: Cc1cc(C)c(NC(=O)c2cc3ccccc3c(=O)s2)c(-c2cc(C)[nH]n2)c1 [drawing 263]

- inhibition at 10 µM (ROS): 23.2%
Compound: O=C(CCn1ccc2ccccc21)Nc1ccc(F)cc1 [drawing 338]

- inhibition at 10 µM (ROS): 20.8%
Compound: CCc1cc(Br)ccc1NC(=O)CCn1ccc2ccccc21 [drawing 341]

- inhibition at 10 µM (ROS): 24.5%
Compound: CCOC(=O)c1ccc(NC(=O)CCn2ccc3ccccc32)cc1 [drawing 336]

- IC50 (ROS): 1.42 µM
- inhibition at 5 µM (ROS): 98.6%
Compound: Cc1cccc(Nc2nccc(Nc3cccc(C(=O)NC4CCN(C)CC4)c3)n2)c1 [drawing 285]

- inhibition at 10 µM (ROS): 26.5%
Compound: COc1ccc(NC(=O)CC2=Nc3cccc4cccc(c34)NC2=O)cc1 [drawing 345]

- IC50 (ROS): 0.271 µM
- inhibition at 5 µM (ROS): 101%
Compound: CN(C)CC(C)(C)CNC(=O)c1cccc(Nc2nccc(Nc3ccc4ncsc4c3)n2)c1 [drawing 276]

- inhibition at 5 µM (ROS): 20%
Compound: Cc1ccc(F)cc1S(=O)(=O)Nc1cccc(C(=O)OCC(=O)NC2CCCCC2)c1 [drawing 267]

- IC50 (ROS): 1.3 µM
- inhibition at 10 µM (ROS): 41.5%
Compound: NC(=O)c1c(NC(=O)[C@H]2CC(=O)N(c3ccccc3)C2)sc2c1CCCC2 [drawing 219]

- inhibition at 5 µM (ROS): 34.2%
Compound: COc1ccc(N/C=C2\C(=O)NN=C2c2ccccc2)cc1 [drawing 232]

- inhibition at 5 µM (ROS): 32.6%
Compound: O=C(NCC1CCCCC1)c1cccc(Nc2nccc(Nc3ccc4ncsc4c3)n2)c1 [drawing 270]

- IC50 (ROS): > 100 µM
- inhibition at 10 µM (ROS): 31.2%
Compound: O=C(NNc1cc(C(F)(F)F)ccc1Cl)c1cccnc1Oc1ccccc1 [drawing 253]

- IC50 (ROS): > 100 µM
- inhibition at 10 µM (ROS): 34.1%
Compound: Cc1c(Br)c([N+](=O)[O-])nn1[C@H](C)C(=O)Nc1c(C)n(C)n(-c2ccccc2)c1=O

- inhibition at 5 µM (ROS): 101%
Compound: O=C(NCC1CCCO1)c1cccc(Nc2nccc(Nc3ccc4ncsc4c3)n2)c1 (stereo not drawn)

- inhibition at 5 µM (ROS): 30.6%
Compound: O=C1NN=C(c2ccccc2)/C1=C/Nc1ccccc1 [drawing 231]

- Kinase Inhib. 5 uM (%) (ROS): 25.09%
Compound: Cc1cccc(C(=O)n2nc(-c3ccco3)nc2NCc2ccccc2)c1 [drawing 294]

- IC50 (ROS): 1.3 µM
- inhibition at 5 µM (ROS): 99.6%
Compound: CC(C)CN(CC(C)C)C(=O)c1cccc(Nc2nccc(Nc3ccc4ncsc4c3)n2)c1 [drawing 287]

- Kinase Inhib. 10 uM (%) (ROS): 23.83%
Compound: Cc1[nH]c2nc(NCc3cccc([N+](=O)[O-])c3)nn2c(=O)c1Cc1ccccc1 [drawing 222]

- Kinase Inhib. 5 uM (%) (ROS): 40.40%
Compound: COc1ccccc1NC(=O)C1=C(C)Nc2ncnn2C1c1ccc[nH]1 (stereo not drawn)

- inhibition at 5 µM (ROS): 102%
Compound: CCN(CC)CCNC(=O)c1cccc(Nc2nccc(Nc3ccc4ncsc4c3)n2)c1 [drawing 236]

- inhibition at 10 µM (ROS): 24.6%
Compound: Nc1cccc2cccc(N=C(CC(=O)O)C(=O)O)c12 [drawing 344]

- IC50 (ROS): 0.16 µM
- inhibition at 5 µM (ROS): 69.2%
- inhibition at 10 µM (ROS): 77.8%
Compound: O=C1NN=C(c2ccccc2)/C1=C1\OC(c2ccccc2)=CS1 [drawing 255]

Compound: O=c1c(O)c(-c2ccc(O)c(O)c2)oc2cc(O)cc(O)c12 [drawing 269]
- IC50 (ROS): 0.05 µM
- inhibition at 5 µM (ROS): 99.6%
- inhibition at 10 µM (ROS): 98.2%

- IC50 (ROS): 0.16 µM
- inhibition at 5 µM (ROS): 101%
Compound: O=C(NCc1ccco1)c1cccc(Nc2nccc(Nc3ccc4ncsc4c3)n2)c1 [drawing 239]

- Kinase Inhib. 5 uM (%) (ROS): 31.08%
Compound: COc1ccc(C(NC(=O)c2n[nH]c(-c3ccccc3)c2C)c2ccncc2)cc1 (stereo not drawn)

- IC50 (ROS): 0.196 µM
- inhibition at 5 µM (ROS): 99.1%
Compound: Cc1ccc(CNC(=O)c2cccc(Nc3nccc(Nc4ccc5ncsc5c4)n3)c2)o1 [drawing 282]

Reference: patent publication US9963452B2, “Methods, compounds, and compositions for inhibition of ROS” (AUGUSTA PHARMACEUTICALS INC., priority 2013, dated 2018)
